Source: patent publication US20230296491A1, “DEVICE AND METHOD FOR DETERMINING A MECHANICAL PROPERTY OF A PARTICLE” (priority 2020, published 2023)

What was measured:
NIH 3T3 fibroblast cells [1] = test: Hydrodynamic stretching deformability of chemically treated NIH 3T3 fibroblasts in the microfluidic system; format: cell-based; conditions: flow rate 10 μl/min, 2 wt % PEO; for mean deformability in the first frame: first frame of the recording cycle (before stretching); for deformability (mean, aspect ratio a/b of the deformed cell): last (15th) frame, CB 150 μM for two hours, fixation 4% formaldehyde for 8 mins
Procedure: On the other hand, an electrical sensing zone is introduced for on-demand single cell imaging. Three electrodes of 20 μm in width, 20 μm intervals are placed before the flow splitting junction, an input voltage of 0.5 V at 5 MHz is applied to the middle electrode and the differential current (Idifferential) is calculated from the two-sided electrodes. The differential configuration can cancel out electrical drifting caused by environmental fluctuation (i.e. flow, temperature, conductivity and pH) and achieve a higher signal-to-noise ratio. As the cell passes through the sensing region, it replaces the conductive medium and causes a change in the electrical current. By that, a pair of opposite peaks is transmitted into an impedance spectroscope. When the peak reaches the trigger level, a trigger signal is generated and fed to the camera. […] Next, for example at a flow rate of 10 μl/min, the camera starts to record 15 frames at a rate of 2,000 frames per second, with an exposure time of 50 μs. The first frame in a recording cycle is used to extract the cell diameter. At this point, the cell remains spherical because it starts to decelerate and is subject to minor stress. In one record cycle, the cell approaches the splitting junction, reaches the channel wall and migrates along the wall for a time span, ensuring the maximum strain is captured at the 15th frame (FIG. 5a). Its aspect ratio evaluates the cell deformability as
where a and b are the length of the long axis and the short axis of the deformed cell, respectively.
(§1) Cytochalasin B (Sigma-Aldrich) treated NIH 3T3 were prepared by incubating cells in 150 μM Cytochalasin B at 37° C. for two hours. After treatment with chemical reagents, cells were washed, centrifuged and resuspended in 2 wt % PEO solution. The viscoelastic solution was prepared by dissolving PEO (Mw=600 kDa, Sigma-Aldrich) powder into DPBS (Thermo Fisher Scientific) with a concentration of 2 wt %.
Samples were continuously introduced into the microfluidic devices using a syringe pump (KD Scientific, Holliston, MA) at a range of flow rates. Simultaneously, the electrical current was received by an impedance spectroscope (HF2IS, Zurich Instruments) and analyzed by a real-time program to send out a trigger signal whenever there was a cell passing through the electrical sensing region. The triggering signal was received by a camera (Photron Inc., San Diego, CA, USA), which started to record 15 frames at a 2,000 frame rate with an exposure time of 50 μs (at a flow rate of 10 μl/min). After the event triggered imaging process was completed, the video was processed offline using a custom-built Python program. […]

NIH 3T3 fibroblast cells [2] = test: Fluorescence imaging of actin in live NIH 3T3 cell before and after CB treatment; format: cell-based; conditions: NIH 3T3, fluorescence images (actin)
Procedure: (a) Representative fluorescence images (actin, red) of a live cell before (top) and after CB treatment (bottom).
as §1
To test the sensitivity of our system for cellular mechanical phenotyping, we compared the deformability of normal and Cytochalasin B (CB) treated two hours NIH 3T3 fibroblasts. […] In addition, we measured the deformability at a wide flow rate range of 1-30 μl/min. […] This flow rate was then applied to analyze the deformability difference. Furthermore, fixed cells were measured as control of undeformed cells.

Q: How did the “mean deformability in the first frame” value (NIH 3T3 fibroblast cells [1]) turn out when `C=C1[C@@H](C)[C@H]2[C@H](Cc3ccccc3)NC(=O)[C@]23OC(=O)/C=C/[C@H](O)CCC[C@@H](C)C/C=C/[C@H]3[C@@H]1O` [CB, Cytochalasin B] was run?
A: 1.16±0.12

Q: And the “deformability (mean, aspect ratio a/b of the deformed cell)” value (NIH 3T3 fibroblast cells [1])?
A: 1.87±0.23

Q: And the “effect on intracellular F-actin (FIG. 8a)” value (NIH 3T3 fibroblast cells [2])?
A: intracellular F-actin depolymerization

Q: For `C=O` [formaldehyde], which “mean deformability in the first frame” value (NIH 3T3 fibroblast cells [1]) is on record?
A: 1.12±0.06

Q: What about the “deformability (mean, aspect ratio a/b of the deformed cell)” value (NIH 3T3 fibroblast cells [1]) of the same compound?
A: 1.29±0.11
